Results from patent publication EP1285920A1, “C10 Ester sustituted taxanes as antitumor agents” (Florida State University Research Foundation, Inc., priority 2001, dated 2003).
Read-outs that look alike come from different tables or passages of the source.

Columns and labels:
[1] = tested on: DU145 prostate carcinoma; settings: for Toxic Deaths: i.v. qd x 1 at estimated MTD (Taxol 24 mg/kg as two split doses)
From the text: Dosing was initiated on Day 1. […] Treatment groups are detailed in Table 5.

[2] = tested on: VM46 colon carcinoma; settings: for Toxic Deaths / Complete Response / Partial Response / Stable Disease / Survivors: i.v. qd x 1; for Complete Response / Partial Response / Stable Disease / Survivors: Day 64
Procedure: Dosing was initiated on Day 1. […] Taxotere was given i.v. at a dose of 70 mg/kg on a qd x 1 schedule.

[3] = tested on: A375 melanoma
Procedure: Dosing was initiated on Day 1. […] Taxotere was given i.v. on a qd x 1 schedule at a dose of 70 mg/kg. […] The study was terminated on Day 60. Treatment groups are detailed in Table 9.

[4] = tested on: Panc-1 pancreatic carcinoma; assay: In vivo evaluation against Panc-1 human pancreatic carcinoma (Example 17); settings: for MDS: i.v. qd x 1 (compounds estimated MTD; Taxol 36 mg/kg split), days until tumor 1.5 g, ended Day 60; for MDS (n): mean days of survival until neoplasm reached 1.5 g, terminated Day 60; for Mean Score: tumor scoring system
Procedure: The dosing volume was 0.3 ml per 20 g mouse.
Female NCr-nude mice were implanted subcutaneously with 1 mm^3 Panc-1 pancreatic carcinoma fragments in the flank and sorted into treatment groups of six mice each. […] Dosing was initiated on Day 1. The antitumor compounds were given i.v. at an estimated maximum tolerated dose (MTD) appropriate for each agent on a qd x 1 schedule (single administration of compound). […] The vehicle was administered i.v. to control mice in Group 1 on the qd x 1 schedule. The study was terminated on Day 60.
The mean days of survival is the number of days after which a neoplasm reached a size of 1.5 g and the animal was euthanized. A complete response is obtained if the tumor shrinks to a size smaller than its size on Day 1 of the study.

[5] = tested on: HCT116 carcinoma
Procedure, shortened: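 Mice bearing HCT116 tumours received a single i.v. maximum tolerated dose per compound, formulated in 5% ethanol, 5% Cremophor, 90% isotonic saline. Study ended on Day 60; complete response meant no palpable tumour at study end.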

[6] = tested on: MX-1 carcinoma
Procedure, shortened: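 Mice dosed with a single i.v. bolus (qd x 1) at each compound's MTD, formulated in 5% ethanol, 5% Cremophor, 90% isotonic saline. Study ended Day 60; complete response = tumor not palpable at study end.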

[7] = tested on: HCT116; assay: In Vitro cytotoxicity measured by the cell colony formation assay; assay type: cell-based, human; settings: Homo sapiens, HCT-116; read-out: IN VITRO ID 50 HCT116
Procedure, shortened: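 Four hundred cells per dish in McCoy's 5a medium with 10% FBS were allowed to attach for 5 h at 37 °C. They were then exposed to compound for 72 h at 37 °C, added as a 10× stock made fresh in medium. After HBSS rinsing and refeeding, colonies were counted after 7 days.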

[8] = number of 5 mice, i.v. qd x 1 at estimated MTD (Taxol 24 mg/kg split), Day 91
[9] = number of mice, mg/kg: Taxol 24, 0499 77, 0503 72.6, 0670 123.1, 0706 107.6, 0838 72.6, 0854 46.6, 0983 67.4, Taxotere 70, 6 mice/group
[10] = number of mice, i.v. qd x 1 at estimated MTD (Taxol 24 mg/kg, Taxotere 70 mg/kg), 6 mice/group (Taxotere 7)
[11] = number of mice, i.v. qd x 1 at estimated MTD (Taxol 24 mg/kg, Taxotere 70 mg/kg), 6 mice/group (Taxotere 7), Day 60
[12] = Panc-1 (Example 17), i.v. qd x 1, six mice per group
[13] = i.v. qd x 1, mg/kg: Taxol 36, 0499 77, 0503 72.6, 0670 123.1, 0706 107.6, 0838 72.6, 0854 76.9, 6 mice/group
[14] = number of mice, i.v. qd x 1, mg/kg: Taxol 36, 0499 77, 0503 72.6, 0670 123.1, 0706 107.6, 0838 72.6, 0854 76.9, 6 mice/group
[15] = number of mice, i.v. qd x 1, mg/kg: Taxol 36, 0499 77, 0503 72.6, 0670 123.1, 0706 107.6, 0838 72.6, 0854 76.9, 6 mice/group, Day 60

Structure (SMILES)	Toxic Deaths ([1]; number of 5 mice, Day 91)	Survivors [1, 8]	Toxic Deaths [2, 9]	Complete Response [2, 9]	Partial Response [2, 9]	Stable Disease [2, 9]	Survivors [2, 9]	Toxic Deaths [3, 10]	Survivors [3, 11]	MDS ([4]; Panc-1 (Example 17)) [days]	Toxic Deaths [4, 12]	MDS (n) [4, 13]	Toxic Deaths [4, 14]	Complete Response [4, 15]	Partial Response [4, 15]	Stable Disease [4, 15]	Mean Score [4, 13]	other results
CC(=O)O[C@@]12CO[C@@H]1C[C@H](O)[C@@]1(C)C(=O)[C@H](OC(=O)C3CC3)C3=C(C)[C@@H](OC(=O)[C@H](O)[C@H](C=C(C)C)NC(=O)OC(C)(C)C)C[C@@](O)([C@@H](OC(=O)c4ccccc4)[C@H]21)C3(C)C [Compound 0838]	0	4	0	0	1	3	4	0	1	47 to 56	One	54.2 ± 0.9 (2) days	1	0	2	3	3.6 ± 1.1	antitumor activity ([1]; DU145, i.v. qd x 1): active; complete responses ([1]; DU145, i.v. qd x 1, five mice per group): 2; Mean Score ([1]; i.v. qd x 1 at estimated MTD (Taxol 24 mg/kg split), 5 mice/group, Day 91): 7 ± 1.5; Stable Disease ([1]; number of 5 mice, tumor did not reach 1.5 g by end of study, i.v. qd x 1 at estimated MTD (Taxol 24 mg/kg split), Day 91): 1; Complete Response [1, 8]: 2; Partial Response [1, 8]: 1; Toxic Deaths ([2]; VM46, six mice per group): no toxic deaths; survival extension compared to Group 1 controls ([3]; A375, i.v. qd x 1): 133%; MDS (n) ([3]; mean days of survival until neoplasm reached 2.0 g, i.v. qd x 1 at estimated MTD (Taxol 24 mg/kg, Taxotere 70 mg/kg), 6 mice/group (Taxotere 7), terminated Day 60): 33.5 ± 3.4 (5) days; Complete Response [3, 11]: 1; Partial Response [3, 11]: 0; Stable Disease [3, 11]: 0; Mean Score ([3]; tumor scoring system, i.v. qd x 1 at estimated MTD (Taxol 24 mg/kg, Taxotere 70 mg/kg), 6 mice/group (Taxotere 7)): 3.8 ± 1.2; Survivors [4, 15]: 3
CCC(=O)O[C@H]1C(=O)[C@@]2(C)[C@H]([C@H](OC(=O)c3ccccc3)[C@]3(O)C[C@H](OC(=O)[C@H](O)[C@@H](NC(=O)c4ccccc4)c4ccoc4)C(C)=C1C3(C)C)[C@]1(OC(C)=O)CO[C@@H]1C[C@@H]2O [Compound 0670]	0	4	0	0	1	0	1	0	0	47 to 56	One	51.2 ± 5.9 (2) days	1	1	0	2	4.2 ± 1.7	Partial Response ([5]; iv): 1; Complete Response ([5]; iv, 1440 h): 2; MDS (n) ([5]; iv, 1440 h): 29.8 ± 0.7 (2) days; Mean Score ([5]; iv, 1440 h): 6.6 ± 1.9; Stable Disease ([5]; iv, 1440 h): 0; Survivors ([5]; number of 5 mice, i.v. qd x 1 at MTD, Day 60, doses as in E3): 3; Toxic Deaths ([5]; number of 5 mice, i.v. qd x 1 at MTD, Day 60, mg/kg: Taxol 36 (split doses), 0503 72.6, 0536 49, 0663 159, 0670 123, 0687 159, 0706 108, 0908 159, 0947 76.9, 0951 72.6, 0983 72.6, 0999 49, 1003 49, 1011 108): 0; total response rate ([1]; iv): 20-50%; response rate ([2]; VM46, i.v. qd x 1 at estimated MTD): 16.7-40%; Mean Score ([2]; iv): 2.8 ± 1.2; MDS (n) ([2]; iv, 1536 h): 40.1 ± 5.8 (5) days; Partial Response ([6]; iv): 1; Complete Response ([6]; iv, 1440 h): 1; MDS (n) ([6]; iv, 1440 h): 28.5 ± 6.1 (4) days; Mean Score ([6]; iv, 1440 h): 4.3 ± 1.6; Stable Disease ([6]; iv, 1440 h): 0; Survivors ([6]; number of 6 mice, i.v. qd x 1 at MTD, Day 60, doses as in E17): 2; Toxic Deaths ([6]; number of 6 mice, i.v. qd x 1 at MTD, Day 60, mg/kg: Taxol 36 (split dose), 0503 72.6, 0536 49, 0663 159, 0670 123, 0687 159, 0706 108, 0908 159, 0947 76.9, 0951 72.6, 0983 67.4, 0999 49, 1003 49, 1011 108): 0; IC50 [7]: < 1 nM
